Tested on: cells
Assay: Cell attachment assay, peptides/proteins from amyloid P component coated on plates (Table I)
Format: cell-based
Conditions: plates coated with peptide/protein (20 uM); average ± SEM
Protocol: All cell types used were obtained from American Type Culture Collection, Rockville, Md. and were maintained in Dulbecco's modified Eagle's medium (DMEM) supplemented with 10% fetal calf serum (FCS). The cells were grown to approximately 80% confluency in Falcon T75 flasks. For cell attachment assays, cells were washed with PBS (pH 7.4), and then detached from the tissue culture flasks with 0.025% trypsin, 0.025% EDTA.
The cells were sedimented by low speed centrifugation, suspended in serum-free Eagle's minimal essential medium (EMEM) containing 0.05% BSA and used immediately in the cell attachment assays.
Cell attachment was assayed as described by Graf et al., Biochemistry 26, 6896-6900 (1987). 24 well plastic culture plates (Linbro, Flow Laboratories, Inc., Va.) were coated with the desired peptides at 25° C. for 16 h in 0.1M bicarbonate buffer, pH 9.6. Exposed non-specific cell attachment sites were blocked by coating the wells with 3% BSA for 1 h at 25° C. Cells, (1.1×10^5), prepared as described above, were added to each well and incubated at 37° C. for 1 h in a humidified incubator with 5% CO2 --95% air mixture. At the end of incubation, plates were gently washed twice with PBS to remove unattached cells. Attached cells were treated with trypsin and electronically counted. […] Each peptide was tested for cell attachment in six separate experiments.
Tissue culture plates (obtained from Linbro, Flow Laboratories, Inc., Va.) were coated with peptides or proteins at […]. Before coating (a) AP was denatured with 6M Guanidine HCl (GnHCl) for 2 h at 4° C. GnHCl was removed by extensive dialysis against 0.1M bicarbonate buffer, pH 9.6 at 4° C.; (b) AP was heat-denatured at 100° C. for 15 min.; (c) native AP was reduced and the free sulfhydryl groups were blocked by carboxymethylation, and (d) heat-denatured AP was treated as in (c). The values are expressed as the average ± SEM, and are reported hereinbelow in Table I.

Substance	No. attached cells
GnHCl-Denatured SAP (a): AP denatured with 6M Guanidine HCl for 2 h at 4° C., GnHCl removed by dialysis	3835 ± 424
Heat-Denatured SAP (b): AP heat-denatured at 100° C. for 15 min.	3926 ± 552
Native SAP: Amyloid P component isolated from normal human serum, 125 kDa glycoprotein	3125 ± 348
Reduced (heat-denatured SAP)/carboxymethylated (d): heat-denatured AP reduced and carboxymethylated as in (c)	3436 ± 396
Reduced (native)/carboxy-methylated (c): native AP reduced and the free sulfhydryl groups blocked by carboxymethylation	2558 ± 428

Reference: US5092876A, “Cell attachment peptides derived from amyloid P component” (The United States of America as represented by the …, priority 1989, dated 1992)
